Test results taken from ChEMBL document CHEMBL1151145, “Minor Bioactive Polyacetylenes from Petrosia ficiformis” (J Nat Prod, 1990).
Converted amounts (≈) assume the structure as drawn.

What was measured:
[1] = Toxicity against Artemia salina after 24 hrs; format: organism-based; conditions: in vivo
[2] = test system: Agrobacterium tumefaciens; assay: Inhibition of Agrobacterium tumefaciens-induced tumor formation in potato at 0.5 mg/ml by antitumor potato disk assay; format: functional
[3] = Inhibition of sea urchin egg development after 48 hrs; conditions: echinoidea, sea urchin eggs

Compound	LC50 at 24 h [1]	inhibition at 500 µg/mL [2]	LC50 at 48 h [3]
C#CC(O)/C=C/CCCCCCCCCCCCCCCCCCCCCCCCCCCCCCCCC/C=C\C#CC(=O)OC (stereo unspecified)	0.002 µg/mL (≈ 0.00306 µM)		
C#C/C=C\CCCCCCCCCCCCCC/C=C\CC/C=C/C#CC(O)C#CCCCC/C=C\CCCCCC/C=C/C(O)C#C (stereo unspecified)	0.0075 µg/mL (≈ 0.0115 µM)	43%	50 µg/mL (≈ 76.6 µM)
C#C/C=C\CCCCCCCCCCCCCC/C=C\CC/C=C/C#CC(O)C#CCCCC/C=C\CCCCCC/C=C/C(=O)C#C (stereo unspecified)	0.04 µg/mL (≈ 0.0614 µM)		
C#CC(O)/C=C/CC/C=C\CCCC/C=C\CCC#CC(O)C#C/C=C/CC/C=C\CCCCCCCCCCCCC/C=C/C(O)C#C (stereo unspecified)	0.009 µg/mL (≈ 0.0135 µM)	15%	1 µg/mL (≈ 1.5 µM)
C#C[C@@H](O)/C=C/CCCCCC/C=C\CCCCC#C[C@H](O)C#C/C=C/CC/C=C\CCCCCCCCCCCCC/C=C/[C@H](O)C#C [PETROFORMYNE 1]	0.014 µg/mL (≈ 0.0209 µM)	35%	10 µg/mL (≈ 14.9 µM)
C#CCCCCCCCCCCCCCCCC/C=C\CC/C=C/C#C[C@@H](O)C#CCCCC/C=C\CCCCCC/C=C/[C@H](O)C#C [PETROFORMYNE 3]	0.003 µg/mL (≈ 0.00458 µM)	49%	10 µg/mL (≈ 15.3 µM)
C#CCCCCCCCCCCCCCCCC/C=C\CC/C=C/C#CC(O)C#CCCCC/C=C\CCCCCC/C=C/C(=O)C#C (stereo unspecified) [PETROFORMYNE 6]	0.12 µg/mL (≈ 0.184 µM)		
C#CC(O)/C=C/CCCCCCCCCCCCCCCCCCCCCCCCCCCCCCCCCCC/C=C\C#CC(=O)OC (stereo unspecified) [PETROFORMYNE B]	0.0025 µg/mL (≈ 0.00367 µM)		
